Measured values published in US20160145257A1, “SUBSTITUTED XANTHINES AND METHODS OF USE THEREOF” (Hydra Biosciences, Inc., priority 2013, published 2016).

Target: T1, hTRPC5 (Homo sapiens, UniProt Q9UL62)
T1 construct: expressed in transfected cells; host or cells: HEK293 TREx cells with inducible TRPC5 expression
T1 sequence (Q9UL62 1-973): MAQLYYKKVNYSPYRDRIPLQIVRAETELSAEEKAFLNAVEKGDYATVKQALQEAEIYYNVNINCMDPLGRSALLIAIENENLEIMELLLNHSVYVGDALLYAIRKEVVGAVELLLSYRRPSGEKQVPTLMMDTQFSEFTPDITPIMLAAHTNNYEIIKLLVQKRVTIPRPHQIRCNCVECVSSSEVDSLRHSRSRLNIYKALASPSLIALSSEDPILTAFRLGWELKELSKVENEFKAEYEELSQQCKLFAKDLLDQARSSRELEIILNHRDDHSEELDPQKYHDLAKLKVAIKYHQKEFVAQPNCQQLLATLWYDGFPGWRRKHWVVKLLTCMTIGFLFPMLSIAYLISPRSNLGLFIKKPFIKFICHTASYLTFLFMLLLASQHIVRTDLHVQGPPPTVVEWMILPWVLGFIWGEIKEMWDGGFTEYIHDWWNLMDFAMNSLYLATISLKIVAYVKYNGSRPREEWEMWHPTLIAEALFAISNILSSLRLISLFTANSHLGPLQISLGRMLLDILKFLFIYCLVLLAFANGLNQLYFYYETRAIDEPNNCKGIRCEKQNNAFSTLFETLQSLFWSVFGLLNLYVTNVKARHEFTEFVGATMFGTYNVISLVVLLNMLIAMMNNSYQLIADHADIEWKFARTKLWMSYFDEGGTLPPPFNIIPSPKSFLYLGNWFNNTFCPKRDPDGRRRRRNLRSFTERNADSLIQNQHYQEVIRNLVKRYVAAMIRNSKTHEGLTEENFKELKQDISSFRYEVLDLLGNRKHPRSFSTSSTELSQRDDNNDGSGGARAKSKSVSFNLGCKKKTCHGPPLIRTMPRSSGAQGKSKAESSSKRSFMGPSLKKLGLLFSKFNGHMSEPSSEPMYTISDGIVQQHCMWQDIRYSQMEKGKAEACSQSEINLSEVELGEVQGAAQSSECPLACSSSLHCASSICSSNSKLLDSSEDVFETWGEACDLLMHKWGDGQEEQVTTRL
Test: Whole-cell patch clamp, block of LaCl3-activated TRPC5 inward current
Assay type: cell-based
Conditions: TRPC5-expressing HEK293 TREx cells, 80 μM LaCl3, inward current, IC50 estimated from 5 μM and 500 nM, read-out: hTRPC5 Patch La3+ Inwd (nM) (All Batches)
Method in brief: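 Whole-cell recordings in induced TRPC5-expressing HEK293 TREx cells, holding −40 mV, 400 ms ramps −120 to +100 mV every 5 s; current activated by 80 μM external LaCl3 and 1,400 nM pipette free Ca2+ (pH 7.2 internal, 7.4 external). Inward block at −80 mV, with LaCl3 present; IC50 estimated from testing at 5 μM and 500 nM.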

In the case of `CCc1coc(CSc2nc3c(c(=O)n(C)c(=O)n3C)n2Cc2cccc(C#N)c2)n1` [Compound 170, 3-((8-((4-ethyloxazol-2-yl)methylthio)-1,3-dimethyl-2,6-dioxo-2,3-dihydro-1H-purin-7(6H)-yl)methyl)benzonitrile], the IC50 was 2000 to 10000 nM.
In the case of `COc1cccc(Cn2c(Oc3ccc(-c4ccccc4)nc3)nc3c2c(=O)n(C)c(=O)n3C)c1` [Compound 171], the IC50 was 2000 to 10000 nM.
With `Cn1c(=O)c2c(nc(Nc3cccc(C(F)(F)F)c3)n2Cc2cccc(Br)c2)n(C)c1=O` [Compound 172] the IC50 was 2000 to 10000 nM.
Molecule `CCCC(O)c1cccc(Oc2nc3c(c(=O)n(C)c(=O)n3C)n2Cc2cccc(Br)c2)c1` (centres unmarked) [Compound 173, 7-(3-bromobenzyl)-8-(3-(1-hydroxybutyl)phenoxy)-1,3-dimethyl-1H-purine-2,6(3H,7H)-dione] has an IC50 of 2000 to 10000 nM.
With `CCCCc1cccc(Oc2nc3c(c(=O)n(C)c(=O)n3C)n2Cc2cccc(Br)c2)c1` [Compound 174, 7-(3-bromobenzyl)-8-(3-butylphenoxy)-1,3-dimethyl-1H-purine-2,6(3H,7H)-dione] the IC50 was 2000 to 10000 nM.
`Cc1ccc(Cn2c(Oc3cccc(OC(F)(F)F)c3)nc3c2c(=O)n(C)c(=O)n3C)cc1` [Compound 178, 1,3-dimethyl-7-(4-methylbenzyl)-8-(3-(trifluoromethoxy)phenoxy)-1H-purine-2,6(3H,7H)-dione] showed an IC50 of 100 to 500 nM.
`Cn1c(=O)c2c(nc(Oc3cccc(C(F)(F)F)c3)n2Cc2cccc3ccccc23)n(C)c1=O` [Compound 179, 1,3-dimethyl-7-(naphthalen-1-ylmethyl)-8-(3-(trifluoromethyl)phenoxy)-1H-purine-2,6(3H,7H)-dione] gave an IC50 of 100 to 500 nM.
In the case of `CCc1coc(CSc2nc3c(c(=O)n(C)c(=O)n3C)n2Cc2cccc(C(C)=O)c2)n1` [Compound 180, 7-(3-acetylbenzyl)-8-((4-ethyloxazol-2-yl)methylthio)-1,3-dimethyl-1H-purine-2,6(3H,7H)-dione], the IC50 was 2000 to 10000 nM.
`CCc1coc(CSc2nc3c(c(=O)n(C)c(=O)n3C)n2Cc2ccc(C(C)=O)cc2)n1` [Compound 181, 7-(4-acetylbenzyl)-8-((4-ethyloxazol-2-yl)methylthio)-1,3-dimethyl-1H-purine-2,6(3H,7H)-dione] gave an IC50 of 2000 to 10000 nM.
For `CN(C)Cc1cccc(Cn2c(Oc3cccc(OC(F)(F)F)c3)nc3c2c(=O)n(C)c(=O)n3C)c1` [Compound 183], the IC50 was 2000 to 10000 nM.
Work on `Cn1c(=O)c2c(nc(Oc3cncc(C(F)(F)F)c3)n2Cc2ccc(Cl)cc2)n(C)c1=O` [Compound 184, 7-(4-chlorobenzyl)-1,3-dimethyl-8-(5-(trifluoromethyl)pyridin-3-yloxy)-1H-purine-2,6(3H,7H)-dione] yielded an IC50 of 1000 to 2000 nM.
`Cn1c(=O)c2c(nc(Oc3cccc(C(F)(F)F)c3)n2Cc2ccc3ccccc3c2)n(C)c1=O` [Compound 185, 1,3-dimethyl-7-(naphthalen-2-ylmethyl)-8-(3-(trifluoromethyl)phenoxy)-1H-purine-2,6(3H,7H)-dione] gave an IC50 of 2000 to 10000 nM.
For `CN(C)Cc1ccc(Cn2c(Oc3cccc(OC(F)(F)F)c3)nc3c2c(=O)n(C)c(=O)n3C)cc1` [Compound 186], the IC50 was 2000 to 10000 nM.
`CC(c1ccc(Cl)cc1)n1c(Oc2cccc(C(F)(F)F)c2)nc2c1c(=O)n(C)c(=O)n2C` (centres unmarked) [Compound 187, 7-(1-(4-chlorophenyl)ethyl)-1,3-dimethyl-8-(3-(trifluoromethyl)phenoxy)-1H-purine-2,6(3H,7H)-dione] gave an IC50 of 100 to 500 nM.
Molecule `COc1cccc(Cn2c(Oc3ccc(-c4ccccn4)cc3)nc3c2c(=O)n(C)c(=O)n3C)c1` [Compound 189, 7-(3-methoxybenzyl)-1,3-dimethyl-8-(4-(pyridin-2-yl)phenoxy)-1H-purine-2,6(3H,7H)-dione] has an IC50 of 2000 to 10000 nM.
With `Cn1c(=O)c2c(nc(Oc3cccc(C(F)(F)F)c3)n2S(=O)(=O)c2ccc(Cl)cc2)n(C)c1=O` [Compound 190] the IC50 was 2000 to 10000 nM.
Work on `Cn1c(=O)c2c(nc(Oc3cccc(OC(F)(F)F)c3)n2Cc2ccc3ccccc3c2)n(C)c1=O` [Compound 191, 1,3-dimethyl-7-(naphthalen-2-ylmethyl)-8-(3-(trifluoromethoxy)phenoxy)-1H-purine-2,6(3H,7H)-dione] yielded an IC50 of under 100 nM.
In the case of `Cn1c(=O)c2c(nc(Sc3cccc(C(F)(F)F)c3)n2Cc2ccc(Cl)cc2)n(C)c1=O` [Compound 192, 7-(4-chlorobenzyl)-1,3-dimethyl-8-(3-(trifluoromethyl)phenylthio)-1H-purine-2,6(3H,7H)-dione], the IC50 was 100 to 500 nM.
`COc1cccc(Cn2c(Oc3ccc(Br)cc3)nc3c2c(=O)n(C)c(=O)n3C)c1` [Compound 194, 8-(4-bromophenoxy)-7-(3-methoxybenzyl)-1,3-dimethyl-1H-purine-2,6(3H,7H)-dione] was tested, and the IC50 was 1000 to 2000 nM.
`Cn1c(=O)c2c(nc(Oc3cccc(C(F)(F)F)c3)n2CCCc2ccc(Cl)cc2)n(C)c1=O` [Compound 195] gave an IC50 of 2000 to 10000 nM.
For `Cn1c(=O)c2c(nc(Oc3cccc(C(F)(F)F)c3)n2-c2ccc(Cl)cc2)n(C)c1=O` [Compound 196], the IC50 was 2000 to 10000 nM.
In the case of `Cn1c(=O)c2c(nc(Oc3cccc(OC(F)(F)F)c3)n2Cc2ccc(Cl)c(Cl)c2)n(C)c1=O` [Compound 197, 7-(3,4-dichlorobenzyl)-1,3-dimethyl-8-(3-(trifluoromethoxy)phenoxy)-1H-purine-2,6(3H,7H)-dione], the IC50 was under 100 nM.
Molecule `Cn1c(=O)c2c(nc(Oc3cccc(OC(F)(F)F)c3)n2Cc2ccc(Cl)c(F)c2)n(C)c1=O` [Compound 198, 7-(4-chloro-3-fluorobenzyl)-1,3-dimethyl-8-(3-(trifluoromethoxy)phenoxy)-1H-purine-2,6(3H,7H)-dione] has an IC50 of under 100 nM.
Molecule `Cc1ccc(Oc2nc3c(c(=O)n(C)c(=O)n3C)n2Cc2ccc(Cl)cc2)cc1C(F)(F)F` [Compound 199] has an IC50 of 2000 to 10000 nM.
With `Cn1c(=O)c2c(nc(Oc3cc(Cl)cc(OC(F)(F)F)c3)n2Cc2ccc(Cl)cc2)n(C)c1=O` [Compound 202, 8-(3-chloro-5-(trifluoromethoxy)phenoxy)-7-(4-chlorobenzyl)-1,3-dimethyl-1H-purine-2,6(3H,7H)-dione] the IC50 was under 100 nM.
In the case of `Cn1c(=O)c2c(nc(Oc3cccc(OC(F)(F)F)c3)n2Cc2cc(Cl)cc(Cl)c2)n(C)c1=O` [Compound 204, 7-(3,5-dichlorobenzyl)-1,3-dimethyl-8-(3-(trifluoromethoxy)phenoxy)-1H-purine-2,6(3H,7H)-dione], the IC50 was under 100 nM.
Work on `COc1cc(Cn2c(Oc3cccc(OC(F)(F)F)c3)nc3c2c(=O)n(C)c(=O)n3C)ccc1Cl` [Compound 205, 7-(4-chloro-3-methoxybenzyl)-1,3-dimethyl-8-(3-(trifluoromethoxy)phenoxy)-1H-purine-2,6(3H,7H)-dione] yielded an IC50 of 100 to 500 nM.
With `Cc1cc(Cn2c(Oc3cccc(OC(F)(F)F)c3)nc3c2c(=O)n(C)c(=O)n3C)ccc1Cl` [Compound 206, 7-(4-chloro-3-methylbenzyl)-1,3-dimethyl-8-(3-(trifluoromethoxy)phenoxy)-1H-purine-2,6(3H,7H)-dione] the IC50 was under 100 nM.
`Cc1c(Oc2nc3c(c(=O)n(C)c(=O)n3C)n2Cc2ccc(Cl)cc2)cccc1C(F)(F)F` [Compound 207, 7-(4-chlorobenzyl)-1,3-dimethyl-8-(2-methyl-3-(trifluoromethyl)phenoxy)-1H-purine-2,6(3H,7H)-dione] gave an IC50 of 2000 to 10000 nM.
`CCCCCCOc1nc2c(c(=O)n(C)c(=O)n2C)n1Cc1ccc(Cl)cc1` [Compound 215, 7-(4-Chlorobenzyl)-8-(hexyloxy)-1,3-dimethyl-1H-purine-2,6(3H,7H)-dione] gave an IC50 of under 100 nM.
`Cn1c(=O)c2c(nc(OCC3CCCC3)n2Cc2ccc(Cl)cc2)n(C)c1=O` [Compound 216, 7-(4-Chlorobenzyl)-8-(cyclopentylmethoxy)-1,3-dimethyl-1H-purine-2,6(3H,7H)-dione] gave an IC50 of 100 to 500 nM.
`Cn1c(=O)c2c(nc(OCCCCCO)n2Cc2ccc(Cl)cc2)n(C)c1=O` [Compound 217, 7-(4-Chlorobenzyl)-8-((5-hydroxypentyl)oxy)-1,3-dimethyl-1H-purine-2,6(3H,7H)-dione] gave an IC50 of 2000 to 10000 nM.
